How the values were obtained:
[1] = Radioligand stability in mice (radio-HPLC of blood and urine); format: in vivo; details: mean ± SD
Experimental: The formation of radiometabolites which can be detected in the blood was tested in blood samples collected 5 min post-injection (pi) of each of the radioligands [^67Ga]Ga/[^111In]In/[^177Lu]Lu-GAS1/3 and [^67Ga]Ga/[^111In]In-GAS2. For this study, in-house male Swiss albino mice (body weight: 30 ± 5 g, provided by the NCSR “Demokritos” Animal House) were used in groups of three. The animals received, through the tail vein, a 100-μL bolus containing each radioligand tested (2.5–3 nmol of the total conjugate in vehicle: saline/EtOH 9/1 v/v, corresponding to: up to 11 MBq for In-111, up to 13 MBq for Ga-67 and up to 74 MBq for Lu-177). Mice were euthanized, and blood was collected directly from the heart using a prechilled penicillin syringe and transferred in a prechilled EDTA-containing Eppendorf Protein LoBind® tube on ice (40 µL, 50 mM Na2EDTA solution). After centrifugation (10 min, 2000× g/4 °C, in a Hettich, Universal 320R, centrifuge), the blood plasma was collected, mixed with chilled MeCN in a 1/1 v/v ratio and centrifuged again (10 min, 15,000× g/4 °C). Supernatants were collected and concentrated to a small volume (≈50–100 μL) under a gentle N2-flux at 40 °C. They were then diluted with physiological saline (≈400 μL) and filtered through a Millex GV filter (0.22 μm, 13 mm Ø, Millipore, Milford, CT, USA). Aliquots of the filtrate were analyzed by radio-RP-HPLC using a Waters Symmetry Shield RP18 cartridge column (5 μm, 3.9 mm × 20 mm) eluted at a flow rate of 1.0 mL/min with the following gradient: 100% A/0% B to 55% A/45% B in 45 min; A = 0.1% aqueous TFA (v/v) and B = MeCN (system 2). The elution time (tR) of each parent radioligand was determined by coinjection of blood samples with an aliquot of the labeling solution on the HPLC column. Results were calculated as the average percentage of intact radioligand ± SD derived from three independent experiments.
Following the same injection protocol, radioligands were administered in additional groups of mice, but this time animals were euthanized 30 min pi. The urine was immediately collected from the bladder using a prechilled syringe and transferred as before in a prechilled EDTA-containing Eppendorf Protein LoBind® centrifuge tube on ice (40 µL, 50 mM Na2EDTA solution) and 0.1 mL of physiological saline. Urine proteins were precipitated by adding chilled MeCN in a 1/1 v/v ratio followed by a 10 min centrifugation step (15,000× g/4 °C). The supernatant was then collected and treated following the blood sample workup procedure. Aliquots of the Millex-GV filtrate (containing >90% of total urine activity) were analyzed by radio-HPLC, adopting the aforementioned conditions. Results were calculated as the average percentage of intact radioligand ± SD derived from three independent experiments.

[2] = system: SCID mice bearing twin HEK293-CCK2i4svR and wtHEK293 tumors; test: Biodistribution in SCID mice bearing twin HEK293-CCK2i4svR and wtHEK293 xenografts; format: in vivo
Experimental: Inocula containing a suspension of freshly harvested HEK293-CCK2i4svR/wtHEK293 cells (150 μL, 1.8 × 10^7/1.4 × 10^7 cells, respectively, in normal saline) were subcutaneously (sc) injected in the right and left flanks of male SCID mice (24.5 ± 2.3 g body weight, six weeks of age on arrival day, NCSR “Demokritos” Animal House Facility). Well-palpable tumors (0.42 ± 0.37/0.25 ± […], respectively) were grown at the inoculation site 3–4 weeks later, and biodistribution was conducted. On the day of biodistribution, animals were divided into groups of four and received the radioligand through the tail vein as a bolus (100 μL, containing each of: i. 78–91 kBq [^67Ga]GAS1/2/3 corresponding to 7–17 pmol GAS1/2/3; ii. 74–92 kBq [^111In]GAS1/2/3 corresponding to 20–25 pmol GAS1/2/3; iii. 730 kBq [^177Lu]Lu-GAS1/3 corresponding to 40 pmol GAS1/3, in-vehicle: saline/EtOH 9/1 v/v). Animals were euthanized at predetermined time intervals depending upon the radionuclide applied (for [^67Ga]Ga-GAS1/2/3: 1, 4 and 24 h pi; for [^111In]In-GAS1/2/3: 4 and 24 h pi–two extra groups of mice receiving gelofusine together with [^111In]In-GAS1/2 at 4 and 24 h pi were included; and for [^177Lu]Lu-GAS1/3: 4, 24, 48, 72 and 96 h pi). Mice were dissected, and blood samples, organs of interest and tumors were rapidly collected, weighted and counted in the gamma counter. Biodistribution data was calculated as the percentage of the administered dose per gram tissue (%IA/g) with the aid of suitable standards of the administered dose and the Microsoft Excel program. Results are presented as mean % IA/g values ± SD, n = 4 per time point, as determined by the PRISM^TM 6.0 GraphPad software (San Diego, CA, USA).

CC(C)(C)C(=O)CN1C(=O)[C@H](NC(=O)Nc2cccc(C(=O)NCCOCCOCCOCCNC(=O)[C@H](CCC(=O)O)NC(=O)CN3CCN(CC(=O)[O-])CCN(CC(=O)[O-])CCN(CC(=O)[O-])CC3)c2)CN(C2CCCCC2)c2ccccc21.[177Lu+3] (stereo in doubt) [[^177Lu]Lu-GAS1]
Intact radioligand in blood ([1]; mice blood collected 5 min pi): 81.1 ± 8.2 (3) %
Intact radioligand in urine ([1]; mice urine collected 30 min pi): 79.2 ± 10.3 (3) %
Biodistribution, Blood ([2]; 4 h pi): 0.99 ± 0.20 %IA/g
Biodistribution, CCK2i4svR(+) Tumor ([2]; 4 h pi): 8.74 ± 1.60 %IA/g
Biodistribution, CCK2i4svR(-) Tumor ([2]; 4 h pi): 1.01 ± 0.30 %IA/g
Biodistribution, Femur ([2]; 4 h pi): 0.28 ± 0.03 %IA/g
Biodistribution, Heart ([2]; 4 h pi): 0.41 ± 0.07 %IA/g
Biodistribution, Intestines ([2]; 4 h pi): 1.65 ± 0.28 %IA/g
Biodistribution, Kidneys ([2]; 4 h pi): 3.70 ± 0.62 %IA/g
Biodistribution, Liver ([2]; 4 h pi): 2.21 ± 0.44 %IA/g
Biodistribution, Lungs ([2]; 4 h pi): 0.94 ± 0.15 %IA/g
Biodistribution, Muscle ([2]; 4 h pi): 0.12 ± 0.02 %IA/g
Biodistribution, Pancreas ([2]; 4 h pi): 0.56 ± 0.11 %IA/g
Biodistribution, Spleen ([2]; 4 h pi): 0.59 ± 0.07 %IA/g
Biodistribution, Stomach ([2]; 4 h pi): 0.37 ± 0.05 %IA/g
Biodistribution, Blood ([2]; 24 h pi): 0.06 ± 0.00 %IA/g
Biodistribution, CCK2i4svR(+) Tumor ([2]; 24 h pi): 2.09 ± 0.50 %IA/g
Biodistribution, CCK2i4svR(-) Tumor ([2]; 24 h pi): 0.29 ± 0.20 %IA/g
Biodistribution, Femur ([2]; 24 h pi): 0.11 ± 0.01 %IA/g
Biodistribution, Heart ([2]; 24 h pi): 0.12 ± 0.00 %IA/g
Biodistribution, Intestines ([2]; 24 h pi): 0.32 ± 0.07 %IA/g
Biodistribution, Kidneys ([2]; 24 h pi): 1.05 ± 0.12 %IA/g
Biodistribution, Liver ([2]; 24 h pi): 0.51 ± 0.07 %IA/g
Biodistribution, Lungs ([2]; 24 h pi): 0.34 ± 0.03 %IA/g
Biodistribution, Muscle ([2]; 24 h pi): 0.04 ± 0.00 %IA/g
Biodistribution, Pancreas ([2]; 24 h pi): 0.10 ± 0.01 %IA/g
Biodistribution, Spleen ([2]; 24 h pi): 0.32 ± 0.01 %IA/g
Biodistribution, Stomach ([2]; 24 h pi): 0.14 ± 0.03 %IA/g
Biodistribution, Blood ([2]; 48 h pi): 0.04 ± 0.01 %IA/g
Biodistribution, CCK2i4svR(+) Tumor ([2]; 48 h pi): 0.97 ± 0.20 %IA/g
Biodistribution, CCK2i4svR(-) Tumor ([2]; 48 h pi): 0.17 ± 0.02 %IA/g
Biodistribution, Femur ([2]; 48 h pi): 0.09 ± 0.01 %IA/g
Biodistribution, Heart ([2]; 48 h pi): 0.07 ± 0.01 %IA/g
Biodistribution, Intestines ([2]; 48 h pi): 0.08 ± 0.01 %IA/g
Biodistribution, Kidneys ([2]; 48 h pi): 0.38 ± 0.07 %IA/g
Biodistribution, Liver ([2]; 48 h pi): 0.32 ± 0.04 %IA/g
Biodistribution, Lungs ([2]; 48 h pi): 0.29 ± 0.04 %IA/g
Biodistribution, Muscle ([2]; 48 h pi): 0.03 ± 0.00 %IA/g
Biodistribution, Pancreas ([2]; 48 h pi): 0.05 ± 0.01 %IA/g
Biodistribution, Spleen ([2]; 48 h pi): 0.26 ± 0.06 %IA/g
Biodistribution, Stomach ([2]; 48 h pi): 0.08 ± 0.01 %IA/g
Biodistribution, Blood ([2]; 72 h pi): 0.04 ± 0.00 %IA/g
Biodistribution, CCK2i4svR(+) Tumor ([2]; 72 h pi): 0.35 ± 0.23 %IA/g
Biodistribution, CCK2i4svR(-) Tumor ([2]; 72 h pi): 0.18 ± 0.05 %IA/g
Biodistribution, Femur ([2]; 72 h pi): 0.06 ± 0.00 %IA/g
Biodistribution, Heart ([2]; 72 h pi): 0.05 ± 0.01 %IA/g
Biodistribution, Intestines ([2]; 72 h pi): 0.06 ± 0.02 %IA/g
Biodistribution, Kidneys ([2]; 72 h pi): 0.14 ± 0.04 %IA/g
Biodistribution, Liver ([2]; 72 h pi): 0.23 ± 0.02 %IA/g
Biodistribution, Lungs ([2]; 72 h pi): 0.21 ± 0.03 %IA/g
Biodistribution, Muscle ([2]; 72 h pi): 0.02 ± 0.00 %IA/g
Biodistribution, Pancreas ([2]; 72 h pi): 0.03 ± 0.00 %IA/g
Biodistribution, Spleen ([2]; 72 h pi): 0.51 ± 0.71 %IA/g
Biodistribution, Stomach ([2]; 72 h pi): 0.05 ± 0.01 %IA/g
Biodistribution, Blood ([2]; 96 h pi): 0.04 ± 0.00 %IA/g
Biodistribution, CCK2i4svR(+) Tumor ([2]; 96 h pi): 0.56 ± 0.25 %IA/g
Biodistribution, CCK2i4svR(-) Tumor ([2]; 96 h pi): 0.11 ± 0.04 %IA/g
Biodistribution, Femur ([2]; 96 h pi): 0.05 ± 0.01 %IA/g
Biodistribution, Heart ([2]; 96 h pi): 0.04 ± 0.00 %IA/g
Biodistribution, Intestines ([2]; 96 h pi): 0.08 ± 0.05 %IA/g
Biodistribution, Kidneys ([2]; 96 h pi): 0.10 ± 0.04 %IA/g
Biodistribution, Liver ([2]; 96 h pi): 0.19 ± 0.02 %IA/g
Biodistribution, Lungs ([2]; 96 h pi): 0.17 ± 0.02 %IA/g
Biodistribution, Muscle ([2]; 96 h pi): 0.02 ± 0.01 %IA/g
Biodistribution, Pancreas ([2]; 96 h pi): 0.03 ± 0.01 %IA/g
Biodistribution, Spleen ([2]; 96 h pi): 0.14 ± 0.02 %IA/g
Biodistribution, Stomach ([2]; 96 h pi): 0.05 ± 0.01 %IA/g
Background clearance / excretion route ([2]; mouse, in vivo): rapid background clearance predominantly via the kidneys
